As a reminder, the EC50 is the midpoint of the concentration-response curve.

For the experiment, the target named is T1, CFTR (F508del/MF-HBE cells) (Homo sapiens, UniProt P13569, DEL508-508).
T1 construct: human bronchial epithelial (HBE) cells derived from CF subjects heterozygous for F508del and a minimal function CFTR mutation; endogenous in cells; host or cells: primary human bronchial epithelial cells from CF subjects (F508del/MF genotype)
T1 sequence (P13569 with tags, fused parts or gaps DEL508-508): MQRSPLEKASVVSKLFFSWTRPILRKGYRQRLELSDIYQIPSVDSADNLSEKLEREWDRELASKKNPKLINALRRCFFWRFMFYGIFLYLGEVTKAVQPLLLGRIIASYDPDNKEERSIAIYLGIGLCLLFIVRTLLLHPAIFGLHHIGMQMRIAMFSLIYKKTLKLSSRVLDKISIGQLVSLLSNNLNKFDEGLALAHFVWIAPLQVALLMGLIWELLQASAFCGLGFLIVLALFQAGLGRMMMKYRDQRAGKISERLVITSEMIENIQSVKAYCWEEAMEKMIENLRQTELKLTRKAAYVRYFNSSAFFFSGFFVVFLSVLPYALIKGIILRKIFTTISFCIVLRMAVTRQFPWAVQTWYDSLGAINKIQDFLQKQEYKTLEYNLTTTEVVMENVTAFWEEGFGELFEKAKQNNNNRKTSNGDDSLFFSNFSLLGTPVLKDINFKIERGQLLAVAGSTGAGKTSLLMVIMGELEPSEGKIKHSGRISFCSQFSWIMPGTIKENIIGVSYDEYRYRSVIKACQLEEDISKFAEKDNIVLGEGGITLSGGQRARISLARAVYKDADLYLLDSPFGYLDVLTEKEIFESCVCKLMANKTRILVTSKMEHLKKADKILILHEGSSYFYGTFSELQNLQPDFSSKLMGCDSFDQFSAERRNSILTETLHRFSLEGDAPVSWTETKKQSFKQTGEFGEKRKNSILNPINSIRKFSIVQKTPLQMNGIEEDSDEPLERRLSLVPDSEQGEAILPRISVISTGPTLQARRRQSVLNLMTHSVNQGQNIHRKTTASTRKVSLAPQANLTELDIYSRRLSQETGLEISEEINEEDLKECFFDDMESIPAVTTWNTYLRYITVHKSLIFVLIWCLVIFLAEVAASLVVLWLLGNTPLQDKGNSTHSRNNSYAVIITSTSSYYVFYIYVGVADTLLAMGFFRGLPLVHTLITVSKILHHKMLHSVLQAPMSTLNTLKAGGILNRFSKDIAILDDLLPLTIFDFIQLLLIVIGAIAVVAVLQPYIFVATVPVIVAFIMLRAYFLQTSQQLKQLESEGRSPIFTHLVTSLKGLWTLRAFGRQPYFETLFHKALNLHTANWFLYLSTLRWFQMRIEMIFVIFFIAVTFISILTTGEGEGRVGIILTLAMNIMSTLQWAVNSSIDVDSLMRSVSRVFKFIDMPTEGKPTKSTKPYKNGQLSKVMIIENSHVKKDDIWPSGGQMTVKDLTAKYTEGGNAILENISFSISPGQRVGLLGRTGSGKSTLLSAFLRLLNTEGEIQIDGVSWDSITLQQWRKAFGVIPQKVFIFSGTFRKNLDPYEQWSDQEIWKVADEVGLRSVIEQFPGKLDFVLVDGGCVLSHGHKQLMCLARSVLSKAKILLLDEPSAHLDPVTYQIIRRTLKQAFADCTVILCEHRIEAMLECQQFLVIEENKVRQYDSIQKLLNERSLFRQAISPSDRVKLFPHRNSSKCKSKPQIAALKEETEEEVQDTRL
The experiment can be described thus: Ussing chamber assay of CFTR-mediated short-circuit currents (identification of potentiator compounds). As to conditions: CFTR-mediated ISC in F508del/MF-HBE cells; incubated 18-24 hours at 37° C. with 10 μM (14S)-8-[3-(2-{dispiro[2.0.2.1]heptan-7-yl}ethoxy)-1H-pyrazol-1-yl]-...-2,2,4-trione, 20% human serum. The experiment is classed as cell-based. How it is done: Ussing Chamber Assay of CFTR-Mediated Short-Circuit Currents
Ussing chamber experiments were performed using human bronchial epithelial (HBE) cells derived from CF subjects heterozygous for F508del and a minimal function CFTR mutation (F508del/MF-HBE) and cultured as previously described (Neuberger T, Burton B, Clark H, Van Goor F Methods Mol Biol 2011:741:39-54). After four days the apical media was removed, and the cells were grown at an air liquid interface for >14 days prior to use.
To isolate the CFTR-mediated short-circuit (ISC) current, F508del/MF-HBE grown on Costar® Snapwell™ cell culture inserts were mounted in an Ussing chamber and the transepithelial ISC was measured under voltage-clamp recording conditions (Vhold=0 mV) at 37° C. The basolateral solution contained (in mM) 145 NaCl, 0.83 K2HPO4, 3.3 KH2PO4, 1.2 MgCl2, 1.2 CaCl2), 10 Glucose, 10 HEPES (pH adjusted to 7.4 with NaOH) and the apical solution contained (in mM) 145 NaGluconate, 1.2 MgCl2, 1.2 CaCl2), 10 glucose, 10 HEPES (pH adjusted to 7.4 with NaOH) and 30 μM amiloride to block the epithelial sodium channel. Forskolin (20 μM) was added to the apical surface to activate CFTR, followed by apical addition of a CFTR inhibitor cocktail consisting of BPO, GlyH-101 and CFTR inhibitor 172 (each at 20 μM final assay concentration) to specifically isolate CFTR currents. The CFTR-mediated ISC (μA/cm^2) for each condition was determined from the peak forskolin response to the steady-state current following inhibition.
Identification of Potentiator Compounds
The activity of the CFTR potentiator compounds on the CFTR-mediated ISC was determined in Ussing chamber studies as described above. The F508del/MF-HBE cell cultures were incubated with the potentiator compounds at a range of concentrations in combination with 10 μM (14S)-8-[3-(2-{dispiro[2.0.2.1]heptan-7-yl}ethoxy)-1H-pyrazol-1-yl]-12,12-dimethyl-2λ^6-thia-3,9,11,18,23-pentaazatetracyclo [17.3.1.111,14.05,10]tetracosa-1(22),5,7,9,19(23),20-hexaene-2,2,4-trione for 18-24 hours at 37° C. and in the presence of 20% human serum. The concentration of potentiator compounds and (14S)-8-[3-(2-{dispiro[2.0.2.1]heptan-7-yl}ethoxy)-1H-pyrazol-1-yl]-12,12-dimethyl-2λ^6-thia-3,9,11,18,23-pentaazatetracyclo [17.3.1.111,14.05,10]tetracosa-1(22),5,7,9,19(23),20-hexaene-2,2,4-trione used during the 18-24 hours incubations was kept constant throughout the Ussing chamber measurement of the CFTR-mediated ISC to ensure compounds were present throughout the entire experiment. The efficacy and potency of the putative F508del potentiators was compared to that of the known Vertex potentiator, ivacaftor (N-[2,4-bis(1,1-dimethylethyl)-5-hydroxyphenyl]-1,4-dihydro-4-oxoquinoline-3-carboxamide).
Turning to `Nc1cc(C(F)(F)F)c2nc1-c1nnc(o1)C(O)(C(F)(F)F)CCCCC[C@@H]1COCCN21` (single isomer, unassigned) [Compound 55], the EC50 was > 1000 nM.

Take `Nc1cc(C(F)(F)F)c2nc1-c1nnc(o1)C(O)(C(F)(F)F)CCCCCCN2` (single isomer, unassigned) [Compound 56, 17-amino-6,15-bis(trifluoromethyl)-19-oxa-3,4,13,18-tetrazatricyclo[12.3.1.12,5]nonadeca-1(18),2,4,14,16-pentaen-6-ol]: the EC50 is < 500 nM.

On to `CN1CCCCCCC(C)(O)C2=NN=C(O2)c2nc1c(C(F)(F)F)cc2N` (single isomer, unassigned) [Compound 61, 17-amino-6,13-dimethyl-15-(trifluoromethyl)-19-oxa-3,4,13,18-tetrazatricyclo[12.3.1.12,5]nonadeca-1(17),2,4,14(18),15-pentaen-6-ol], for which the EC50 was < 500 nM.

As for `CN1CCCCCCC(C)(O)C2=NN=C(O2)c2nc1c(C(F)(F)F)cc2N` (single isomer, unassigned) [Compound 62, 17-amino-6,13-dimethyl-15-(trifluoromethyl)-19-oxa-3,4,13,18-tetrazatricyclo[12.3.1.12,5]nonadeca-1(17),2,4,14(18),15-pentaen-6-ol], the EC50 was < 500 nM.

Take `CC(C)c1cc(N)c2nc1N1CCC[C@H]1CCCCCC(O)(C(F)(F)F)C1=NN=C2O1` (single isomer, unassigned) [Compound 63]: the EC50 was < 500 nM.

With `CC1CCCCCC(O)(C(F)(F)F)C2=NN=C(O2)c2nc(c(C(F)(F)F)cc2N)N1` (single isomer, unassigned) [Compound 65, 17-amino-12-methyl-6,15-bis(trifluoromethyl)-19-oxa-3,4,13,18-tetrazatricyclo[12.3.1.12,5]nonadeca-1(18),2,4,14,16-pentaen-6-ol], the half-maximal effective concentration (EC50) was < 500 nM.

For the molecule `CC1CCCCCC(O)(C(F)(F)F)C2=NN=C(O2)c2nc(c(C(F)(F)F)cc2N)N1` (single isomer, unassigned) [Compound 66, 17-amino-12-methyl-6,15-bis(trifluoromethyl)-19-oxa-3,4,13,18-tetrazatricyclo[12.3.1.12,5]nonadeca-1(18),2,4,14,16-pentaen-6-ol], the EC50 was < 500 nM.

Consider `Nc1cc(C(F)(F)F)c2nc1-c1nnc(o1)C(O)(C(F)(F)F)c1cccc(c1)CCC[C@@H]1CCCN21` (single isomer, unassigned) [Compound 70], for which the half-maximal effective concentration (EC50) is < 500 nM.

Take `Nc1ccc2nc1-c1nnc(o1)C(O)(C(F)(F)F)CCCCC[C@@H]1CCCN21` (single isomer, unassigned) [Compound 71]: the concentration giving a half-maximal response (EC50) is < 500 nM.

Turning to `Nc1ccc2nc1-c1nnc(o1)C(O)(C(F)(F)F)CCCCC[C@@H]1CCCN21` (single isomer, unassigned) [Compound 72], the half-maximal effective concentration (EC50) was > 1000 nM.

For `Nc1cc(C(F)(F)F)c2nc1-c1nnc(o1)C(O)(C(F)(F)F)CCCCCCN2C1CCC1` (single isomer, unassigned) [Compound 73, 17-amino-13-cyclobutyl-6,15-bis(trifluoromethyl)-19-oxa-3,4,13,18-tetrazatricyclo[12.3.1.12,5]nonadeca-1(18),2,4,14,16-pentaen-6-ol], the EC50 was < 500 nM.

`CN1CCCCCCC(O)(c2ccccc2)C2=NN=C(O2)c2nc1c(C(F)(F)F)cc2N` (single isomer, unassigned) [Compound 76, 17-amino-13-methyl-6-phenyl-15-(trifluoromethyl)-19-oxa-3,4,13,18-tetrazatricyclo[12.3.1.12,5]nonadeca-1(18),2,4,14,16-pentaen-6-ol]: the half-maximal effective concentration (EC50) was < 500 nM.

Regarding `CN1CCCCCCC(O)(c2ccccc2)C2=NN=C(O2)c2nc1c(C(F)(F)F)cc2N` (single isomer, unassigned) [Compound 77, 17-amino-13-methyl-6-phenyl-15-(trifluoromethyl)-19-oxa-3,4,13,18-tetrazatricyclo[12.3.1.12,5]nonadeca-1(18),2,4,14,16-pentaen-6-ol], the EC50 was > 1000 nM.
